From article PMC4860574, “Bafetinib (INNO-406) reverses multidrug resistance by inhibiting the efflux function of ABCB1 and ABCG2 transporters” (Scientific Reports, 2016)

Assays:
ABCG2 = target: T1, ABCG2 (Homo sapiens, UniProt Q9UNQ0); experiment: inhibition of vanadate-sensitive ATPase activity in ABCG2 membranes; format: biochemical; conditions: read-out: concentration required to obtain 50% of maximal inhibition
T1 construct: cell assays in NCI-H460/MX20 and HEK/ABCG2-R482
T1 sequence (Q9UNQ0 1-655): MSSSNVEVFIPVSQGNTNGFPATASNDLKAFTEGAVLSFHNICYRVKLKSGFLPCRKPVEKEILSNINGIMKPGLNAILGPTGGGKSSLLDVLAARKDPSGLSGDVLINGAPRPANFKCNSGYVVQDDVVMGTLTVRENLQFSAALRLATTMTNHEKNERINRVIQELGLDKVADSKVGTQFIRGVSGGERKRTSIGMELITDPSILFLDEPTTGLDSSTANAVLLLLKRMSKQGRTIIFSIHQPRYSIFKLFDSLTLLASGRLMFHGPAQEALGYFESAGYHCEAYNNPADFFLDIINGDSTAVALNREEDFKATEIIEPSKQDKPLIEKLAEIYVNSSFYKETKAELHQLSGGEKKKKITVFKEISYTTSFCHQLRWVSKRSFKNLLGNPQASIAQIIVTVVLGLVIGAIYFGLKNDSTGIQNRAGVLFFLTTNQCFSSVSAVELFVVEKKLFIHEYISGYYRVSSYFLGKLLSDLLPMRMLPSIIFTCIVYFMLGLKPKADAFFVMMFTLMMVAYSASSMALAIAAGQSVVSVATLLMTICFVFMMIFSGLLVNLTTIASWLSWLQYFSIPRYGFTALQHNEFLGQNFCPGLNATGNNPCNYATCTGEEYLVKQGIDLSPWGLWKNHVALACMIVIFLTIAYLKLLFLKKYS
Description: inhibition of vanadate-sensitive ATPase activity in ABCG2 membranes on ABCG2 | bafetinib inhibited the ATPase activity of ABCG2 in a concentration-dependent manner

ABCB1 = target: T2, ABCB1 (Homo sapiens, UniProt P08183); experiment: stimulation of vanadate-sensitive ATPase activity in ABCB1 membranes; format: biochemical; conditions: read-out: concentration required to obtain 50% of maximal stimulation
T2 construct: full length, wild type; cell assays in SW620/Ad300 and HEK/ABCB1
T2 sequence (P08183 whole entry): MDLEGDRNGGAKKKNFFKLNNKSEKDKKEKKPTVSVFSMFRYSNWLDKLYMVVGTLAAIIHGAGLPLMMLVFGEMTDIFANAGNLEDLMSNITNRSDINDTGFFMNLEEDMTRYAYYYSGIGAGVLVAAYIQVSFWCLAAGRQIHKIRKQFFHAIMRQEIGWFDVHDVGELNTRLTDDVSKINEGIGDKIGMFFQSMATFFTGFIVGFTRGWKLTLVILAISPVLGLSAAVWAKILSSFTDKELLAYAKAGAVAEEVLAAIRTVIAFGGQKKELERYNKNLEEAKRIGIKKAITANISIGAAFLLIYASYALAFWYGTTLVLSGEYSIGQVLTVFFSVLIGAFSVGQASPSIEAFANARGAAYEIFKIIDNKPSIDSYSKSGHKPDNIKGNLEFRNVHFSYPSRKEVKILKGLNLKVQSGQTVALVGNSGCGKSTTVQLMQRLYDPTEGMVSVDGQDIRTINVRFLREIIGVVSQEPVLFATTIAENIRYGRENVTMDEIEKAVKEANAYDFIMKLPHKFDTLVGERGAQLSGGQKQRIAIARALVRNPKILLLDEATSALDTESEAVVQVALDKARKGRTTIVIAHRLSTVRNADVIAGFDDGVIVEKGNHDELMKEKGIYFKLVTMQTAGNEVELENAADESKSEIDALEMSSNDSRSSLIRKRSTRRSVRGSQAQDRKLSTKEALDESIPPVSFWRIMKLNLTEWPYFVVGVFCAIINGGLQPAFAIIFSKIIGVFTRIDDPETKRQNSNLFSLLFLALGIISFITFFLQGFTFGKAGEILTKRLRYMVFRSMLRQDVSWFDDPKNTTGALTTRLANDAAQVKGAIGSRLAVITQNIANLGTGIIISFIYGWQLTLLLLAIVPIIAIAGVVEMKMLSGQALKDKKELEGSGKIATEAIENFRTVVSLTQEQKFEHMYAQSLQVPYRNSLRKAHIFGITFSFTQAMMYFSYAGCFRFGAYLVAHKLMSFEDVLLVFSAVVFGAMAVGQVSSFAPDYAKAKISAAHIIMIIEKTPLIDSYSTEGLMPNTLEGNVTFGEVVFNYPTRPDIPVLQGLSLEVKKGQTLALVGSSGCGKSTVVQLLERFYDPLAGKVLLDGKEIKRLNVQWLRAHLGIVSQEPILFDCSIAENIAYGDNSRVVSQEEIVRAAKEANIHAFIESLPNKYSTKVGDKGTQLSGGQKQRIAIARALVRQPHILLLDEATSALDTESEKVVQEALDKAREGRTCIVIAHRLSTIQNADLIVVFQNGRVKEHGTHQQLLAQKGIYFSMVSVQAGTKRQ

Cc1ccc(NC(=O)c2ccc(CN3CC[C@H](N(C)C)C3)c(C(F)(F)F)c2)cc1Nc1nccc(-c2cncnc2)n1 [bafetinib]
IC50 (ABCG2): 2970 nM | EC50 (ABCB1): 640 nM
